Patent publication US10471139B2, “Toll-like receptor agonists” (The University of Kansas, priority 2013, dated 2019)
One block for each molecule: values may come before it.

Columns and labels:
[1] = biological target: T1, human TLR8 (Homo sapiens, UniProt Q9NR97); experiment: Human TLR8 reporter gene assay (NF-κB induction), HEK-Blue-8 cells; type: cell-based
T1 construct: expressed in transfected cells; host or cells: HEK293 (HEK-Blue-8)
T1 sequence (Q9NR97 27-1041): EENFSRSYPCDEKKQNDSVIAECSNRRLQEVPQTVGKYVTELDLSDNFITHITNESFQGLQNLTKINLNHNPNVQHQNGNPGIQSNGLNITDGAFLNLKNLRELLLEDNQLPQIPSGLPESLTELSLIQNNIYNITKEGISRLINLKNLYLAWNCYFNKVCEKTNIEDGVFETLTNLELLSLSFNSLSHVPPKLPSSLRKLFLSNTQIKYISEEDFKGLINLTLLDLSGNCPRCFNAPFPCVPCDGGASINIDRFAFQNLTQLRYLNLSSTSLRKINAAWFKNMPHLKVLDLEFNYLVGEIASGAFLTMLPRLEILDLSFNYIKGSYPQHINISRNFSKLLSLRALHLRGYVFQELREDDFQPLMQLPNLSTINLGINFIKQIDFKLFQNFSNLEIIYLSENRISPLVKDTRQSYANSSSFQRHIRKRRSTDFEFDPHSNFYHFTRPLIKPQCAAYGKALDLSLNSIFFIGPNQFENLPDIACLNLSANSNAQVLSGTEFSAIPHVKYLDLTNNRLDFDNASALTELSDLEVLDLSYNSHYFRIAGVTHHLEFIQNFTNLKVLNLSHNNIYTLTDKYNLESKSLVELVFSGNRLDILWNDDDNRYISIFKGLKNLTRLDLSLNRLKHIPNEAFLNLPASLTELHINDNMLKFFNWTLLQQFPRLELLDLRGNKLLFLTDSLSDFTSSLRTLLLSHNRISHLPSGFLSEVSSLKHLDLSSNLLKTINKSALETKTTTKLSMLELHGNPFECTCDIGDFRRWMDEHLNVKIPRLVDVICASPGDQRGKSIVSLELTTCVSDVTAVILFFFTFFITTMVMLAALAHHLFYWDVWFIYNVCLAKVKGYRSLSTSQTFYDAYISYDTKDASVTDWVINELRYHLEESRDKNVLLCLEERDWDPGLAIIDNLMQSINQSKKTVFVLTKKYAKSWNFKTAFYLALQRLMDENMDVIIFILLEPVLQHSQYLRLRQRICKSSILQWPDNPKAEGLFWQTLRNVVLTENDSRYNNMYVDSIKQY
From the text: Human TLR-7/-8 Reporter Gene Assays (NF-κB Induction).
The induction of NF-κB was quantified using HEK-Blue-7 (hTLR7-specific) and HEK-Blue-8 (hTLR8-specific) cells. HEK293 cells stably co-transfected with human TLR7 or human TLR8, MD2, and secreted alkaline phosphatase (sAP), were maintained in HEK-Blue™ Selection medium containing zeocin and normocin. Stable expression of secreted alkaline phosphatase (sAP) under control of NF-κB/AP-1 promoters is inducible by appropriate TLR agonists, and extracellular sAP in the supernatant is proportional to NF-κB induction.
HEK293 cells stably co-transfected with the appropriate hTLR (or NOD) and secreted alkaline phosphatase (sAP) were maintained in HEK-Blue™ Selection medium. Stable expression of secreted alkaline phosphatase (sAP) under control of NF-κB/AP-1 promoters is inducible by appropriate TLR/NOD agonists, and extracellular sAP in the supernatant is proportional to NF-κB induction.

[2] = test system: human PBMCs; experiment: Proinflammatory cytokine induction in human PBMCs / human blood (bead array); type: cell-based; settings: human PBMCs and whole human blood
Experimental: Immunoassays for Interferon (IFN)-α, and Cytokines.
(§1) Fresh human peripheral blood mononuclear cells (hPBMC) were isolated from human blood obtained by venipuncture with informed consent and as per institutional guidelines on Ficoll-Hypaque gradients as described elsewhere. Aliquots of PBMCs (10^5 cells in 100 μL/well) were stimulated for 12 h with graded concentrations of test compounds. Supernatants were isolated by centrifugation, and were assayed in triplicates using either high-sensitivity multi-subtype IFN-α ELISA kits (PBL Interferon Source, Piscataway, N.J. and R&D Systems, Inc., Minneapolis, Minn.), or analyte-specific multiplexed cytokine/chemokine bead array assays as reported by us previously.

[3] = test system: human natural killer (NK), cytokine-induced killer (CIK) and nominal B lymphocytes; experiment: Flow-cytometric CD69 upregulation in lymphocytic subsets of whole human blood; type: cell-based
Experimental: Flow-Cytometric Immunostimulation Experiments.
CD69 upregulation was determined by flow cytometry and modified for rapid-throughput. Briefly, heparin-anticoagulated whole blood samples were obtained by venipuncture from healthy human volunteers with informed consent and as per guidelines approved by the University of Kansas Human Subjects Experimentation Committee. Serial dilutions of selected imidazopyridine compounds (and imiquimod, used as a reference compound) were performed using a Bio-Tek Precision 2000 XS liquid handler in sterile 96-well polypropylene plates, to which were added 100 μL aliquots of anticoagulated whole human blood. The plates were incubated at 37° C. for 16.5 h. Negative (endotoxin free water) controls were included in each experiment. Following incubation, fluorochrome-conjugated antibodies (CD3-PE, CD56-APC, CD69-PE-Cy7, 10 μL of each antibody, Becton-Dickinson Biosciences, San Jose, Calif.) were added to each well with a liquid handler, and incubated at 37° C. in the dark for 30 min. […] CD69 activation in the major lymphocytic populations, viz., natural killer lymphocytes (NK cells: CD3^−CD56^+), cytokine-induced killer phenotype (CIK cells: CD3^+CD56^+), nominal B lymphocytes (CD3^−CD56^−), and nominal T lymphocytes (CD3^+CD56^−) were quantified using FlowJo v 7.0 software (Treestar, Ashland, Oreg.). […]

[4] = Chemical stability of the free base (autoxidation); type: physicochemical; settings: rapid formation of 3-ol A5 by autoxidation
From the text: A ring-contracted 2-amino-3-alkylindole analogue compound A4, accessed via sequential C-alkylation of commercially available 2-nitrophenylacetonitrile, reduction of the 2-nitro group, and Brønsted acid-promoted, microwave-assisted intramolecular cyclization (Scheme A1).

[5] = Metabolic stability in human foreskin fibroblasts (microdialysis, LC-MS/MS); type: in vitro ADME; settings: human, human foreskin fibroblasts (HFFs)
[6] = test system: human foreskin fibroblasts (HFFs); experiment: as above; type: in vitro ADME
[7] = test system: human PBMCs; experiment: IFN-α induction in human PBMCs (ELISA); type: cell-based; settings: PBMC
Experimental: as §1

[8] = Metabolic stability in peripheral blood mononuclear cells (microdialysis, LC-MS/MS); type: in vitro ADME, human; settings: human, peripheral blood mononuclear cells (PBMCs)
[9] = test system: peripheral blood mononuclear cells (PBMCs); experiment: as above; type: in vitro ADME, human; settings: PBMCs

EC50 ([1]; primary screens, read-out: TLR8-agonistic activity EC50): 1.13 µM
SMILES: CCCCCn1c(N)nc2c(C)cccc21 [Compound A31a, 4-Methyl-1-pentyl-1H-benzo[d]imidazol-2-amine]
induction of proinflammatory cytokines, IL-12p40 and IFN-γ [2]: induction
CD69 upregulation in natural killer (NK) lymphocytes [3]: complete absence

hTLR8 Agonistic Activity (EC50) ([1]; human TLR 8-specific reporter gene assays): Unstable
TLR8-agonistic activity of the hydrochloride salt ([1]; hydrochloride salt): inactive
SMILES: CCCCC1C(N)=Nc2ccccc21 (stereo not shown) [Compound A4]
stability of the free-base [4]: exceedingly unstable

half-life [5]: < 1 h
number of major metabolites identified by LC-MS/MS ([6]; FIG. 5B, Table A, cell type not stated): 6
parent detected by LC-MS ([6]; HFFs, at 1 hour): nearly undetectable
half-life [8]: 3 h
time by which parent was depleted [9]: ≤ 8 h
SMILES: CCCCc1nc2c(N)nc(NCc3ccc(CN)cc3)cc2n1Cc1ccccc1 [Compound 19p, N^6-(4-(aminomethyl)benzyl)-1-benzyl-2-butyl-1H-imidazo[4,5-c]pyridine-4,6-diamine]
EC50 [7]: 0.3 µM
CD69 expression in natural killer, cytokine-induced killer and B lymphocytic subsets [3]: as active as the reference TLR7 agonist IMDQ
